Data taken from patent US9695155B2, “Herbicidal substituted pyrimidinyloxy benzene compounds” (E. I. DU PONT DE NEMOURS AND COMPANY, priority 2013, dated 2017).

Key:
field bindweed = test: Test E postemergence; type: in vivo, Convolvulus arvensis; conditions: Convolvulus arvensis, post-emergence, read-out: Plant response rating, Field Bindweed
Outline: (§1)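 Compound in a non-phytotoxic solvent mixture with surfactant was applied preemergence to seeds in silt loam soil, or postemergence to plants 2 to 18 cm tall grown in peat-based potting medium. Plants were kept in a greenhouse for 14 to 21 days, then rated visually against untreated controls on a 0 (no effect) to 100 (complete control) scale.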

wild poinsettia = test: Test E postemergence; type: in vivo, Euphorbia heterophylla; conditions: Euphorbia heterophylla, post-emergence, read-out: Plant response rating, Poinsettia, Wild
Outline: as §1

Italian ryegrass [1] = test: Test E postemergence; type: in vivo, Lolium multiflorum; conditions: Lolium multiflorum, post-emergence, read-out: Plant response rating, Ryegrass, Italian
Outline: as §1

pigweed = test: Test D postemergence; type: in vivo, Amaranthus retroflexus; conditions: Amaranthus retroflexus, post-emergence, scale 0 to 100 (0 no effect, 100 complete control), read-out: Plant response rating, Pigweed
Outline: (§2)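 Visual rating vs untreated controls, 0 = no effect, 100 = complete control, taken 7–21 d after treatment. Pre: silt loam soil. Post: potting medium, plants 2–18 cm, 1–4 leaf. Formulation: non-phytotoxic solvent mix + surfactant.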

canarygrass = test: Test D preemergence; type: in vivo, Phalaris minor; conditions: Phalaris minor, pre-emergence, scale 0-100, read-out: Plant response rating, Canarygrass
Outline: as §2

chickweed = test: Test D postemergence; type: in vivo, Stellaria media; conditions: Stellaria media, post-emergence, scale 0 to 100 (0 no effect, 100 complete control), read-out: Plant response rating, Chickweed
Outline: as §2

field violet = test: Test D postemergence; type: in vivo, Viola arvensis; conditions: Viola arvensis, post-emergence, scale 0 to 100 (0 no effect, 100 complete control), read-out: Plant response rating, Field Violet
Outline: as §2

Italian ryegrass [2] = test: Test D preemergence; type: in vivo, Lolium multiflorum; conditions: Lolium multiflorum, pre-emergence
Outline: as §2

bromegrass, downy = test: Test D preemergence; type: in vivo, Bromus tectorum; conditions: Bromus tectorum, pre-emergence, scale 0-100, read-out: Plant response rating, Bromegrass, Downy
Outline: as §2

barnyardgrass = test: Test E postemergence; type: in vivo, Echinochloa crus-galli; conditions: Echinochloa crus-galli, post-emergence, read-out: Plant response rating, Barnyardgrass
Outline: as §1

deadnettle = test: Test D preemergence; type: in vivo, Lamium amplexicaule; conditions: Lamium amplexicaule, pre-emergence, scale 0-100, read-out: Plant response rating, Deadnettle
Outline: as §2

spring barley = test: Test D preemergence; type: in vivo, Hordeum vulgare; conditions: Hordeum vulgare, pre-emergence, scale 0-100, read-out: Plant response rating, Barley, Spring
Outline: as §2

winter barley = test: Test D preemergence; type: in vivo, Hordeum vulgare; conditions: Hordeum vulgare, pre-emergence, scale 0-100, read-out: Plant response rating, Barley, Winter
Outline: as §2

[3] = Postemergence, 31 g ai/ha, scale 0 to 100
[4] = Postemergence, 62 g ai/ha, scale 0 to 100
[5] = Postemergence, 125 g ai/ha, scale 0 to 100
[6] = Postemergence, 250 g ai/ha, scale 0 to 100
[7] = postemergence, 16 g ai/ha, scale 0 to 100, 0 no effect, 100 complete control

N#Cc1cccc(Oc2ncc(Br)cn2)c1-n1cc(C(F)(F)F)cn1 [Compound 59, 3-[(5-bromo-2-pyrimidinyl)oxy]-2-[4-(trifluoromethyl)-1H-pyrazol-1-yl]benzonitrile]
25%: pest or weed control at 125 g/ha (Italian ryegrass [1]; [5])
50%: pest or weed control at 16 g/ha (field bindweed; [7]) | pest or weed control at 31 g/ha (wild poinsettia; [3]) | pest or weed control at 16 g/ha (wild poinsettia; [7]) | plant injury at 125 g/ha (spring barley; 125 g ai/ha)
100%: pest or weed control at 31 g/ha (pigweed; 31 g ai/ha) | pest or weed control at 62 g/ha (pigweed; 62 g ai/ha) | pest or weed control at 250 g/ha (canarygrass; 250 g ai/ha) | pest or weed control at 31 g/ha (field violet; 31 g ai/ha) | pest or weed control at 62 g/ha (field violet; 62 g ai/ha) | pest or weed control at 125 g/ha (field violet; 125 g ai/ha) | pest or weed control at 250 g/ha (field violet; 250 g ai/ha) | pest or weed control at 31 g/ha (deadnettle; 31 g ai/ha) | pest or weed control at 62 g/ha (deadnettle; 62 g ai/ha) | pest or weed control at 125 g/ha (deadnettle; 125 g ai/ha) | pest or weed control at 250 g/ha (deadnettle; 250 g ai/ha)
40%: pest or weed control at 250 g/ha (bromegrass, downy; 250 g ai/ha) | plant injury at 125 g/ha (winter barley; 125 g ai/ha)
60%: pest or weed control at 31 g/ha (field bindweed; [3]) | pest or weed control at 62 g/ha (wild poinsettia; [4]) | pest or weed control at 250 g/ha (Italian ryegrass [1]; [6]) | pest or weed control at 125 g/ha (Italian ryegrass [2]; 125 g ai/ha, scale 0-100, read-out: Plant response rating, Ryegrass, Italian)
65%: pest or weed control at 62 g/ha (field bindweed; [4]) | pest or weed control at 125 g/ha (wild poinsettia; [5]) | pest or weed control at 125 g/ha (canarygrass; 125 g ai/ha)
80%: pest or weed control at 250 g/ha (field bindweed; [6]) | pest or weed control at 250 g/ha (wild poinsettia; [6]) | plant injury at 250 g/ha (winter barley; 250 g ai/ha)
0%: pest or weed control at 31 g/ha (Italian ryegrass [1]; [3]) | pest or weed control at 16 g/ha (Italian ryegrass [1]; [7]) | pest or weed control at 31 g/ha (Italian ryegrass [2]; 31 g ai/ha, scale 0 (no effect) to 100 (complete control), read-out: Plant response rating, Ryegrass, Italian) | pest or weed control at 31 g/ha (bromegrass, downy; 31 g ai/ha) | pest or weed control at 62 g/ha (bromegrass, downy; 62 g ai/ha) | pest or weed control at 31 g/ha (barnyardgrass; [3]) | pest or weed control at 16 g/ha (barnyardgrass; [7]) | plant injury at 31 g/ha (winter barley; 31 g ai/ha)
15%: pest or weed control at 62 g/ha (Italian ryegrass [1]; [4]) | pest or weed control at 62 g/ha (canarygrass; 62 g ai/ha) | pest or weed control at 125 g/ha (barnyardgrass; [5])
75%: pest or weed control at 62 g/ha (chickweed; 62 g ai/ha) | plant injury at 250 g/ha (spring barley; 250 g ai/ha)
30%: pest or weed control at 250 g/ha (barnyardgrass; [6])
70%: pest or weed control at 125 g/ha (field bindweed; [5]) | pest or weed control at 31 g/ha (chickweed; 31 g ai/ha) | pest or weed control at 250 g/ha (Italian ryegrass [2]; 250 g ai/ha, scale 0-100, read-out: Plant response rating, Ryegrass, Italian)
5%: pest or weed control at 31 g/ha (canarygrass; 31 g ai/ha) | pest or weed control at 62 g/ha (Italian ryegrass [2]; 62 g ai/ha, scale 0-100, read-out: Plant response rating, Ryegrass, Italian) | plant injury at 31 g/ha (spring barley; 31 g ai/ha) | plant injury at 62 g/ha (spring barley; 62 g ai/ha)
10%: pest or weed control at 125 g/ha (bromegrass, downy; 125 g ai/ha) | pest or weed control at 62 g/ha (barnyardgrass; [4]) | plant injury at 62 g/ha (winter barley; 62 g ai/ha)
95%: pest or weed control at 125 g/ha (pigweed; 125 g ai/ha) | pest or weed control at 250 g/ha (pigweed; 250 g ai/ha) | pest or weed control at 125 g/ha (chickweed; 125 g ai/ha) | pest or weed control at 250 g/ha (chickweed; 250 g ai/ha)
